These results are taken from US10793571B2, “Uses of diazepane derivatives” (Dana-Farber Cancer Institute, Inc., priority 2014, dated 2020).

The target in one test is T1, BRD4.1 (Homo sapiens, UniProt O60885).
T1 construct: final concentrations of BRD4.1 at 80 nM; His tag (inferred from the Ni-coated acceptor bead)
Kind of test: Acetyl-histone binding assay (AlphaScreen), percent inhibition of BRD4.1. Conditions: BRD4.1, 2.5 μM compound concentration, in vitro; read-out: % INHIB (at 2.5 uM). As for the experimental part: (§1) Assays were performed with minor modifications from the manufacturer's protocol (PerkinElmer, USA). All reagents were diluted in 50 mM HEPES, 150 mM NaCl, 0.1% w/v BSA, and 0.01% w/v Tween^□ 20 at pH 7.5 and allowed to equilibrate to room temperature prior to addition to plates. After addition of Alpha beads to master solutions, all subsequent steps were performed in low light conditions. […] Addition to wells was performed with either a multichannel pipet (for optimization experiments) or a Biotek EL406 liquid handler. After a 1000-rpm spin-down for 1 minute, 100 nL of the solutions of the compounds of the invention from stock plates were added by pin transfer using a Janus Workstation (PerkinElmer, USA). The streptavidin-coated donor beads (25 μg/ml final) were added as with previous solution in a 2x, 10 μL volume. Following this addition, the plates were sealed with foil to block light exposure and to prevent evaporation. The plates were spun down again at 1000 rpm for 1 minute. Next, the plates were incubated in the room with the plate reader (for temperature equilibration) for 1.5 hour prior to reading the assay.
On the technique in general: In Alpha technology, singlet oxygen from a donor bead excites a nearby acceptor bead.

For test [1], the target named is T2, BRD4 (Homo sapiens, UniProt O60885). The test can be described thus: BRD4 IC50 (first BRD4 value listed in Table 2). It counts as binding. Conditions: first BRD4 IC50 listed per compound. How it is done: as §1
The target in a further test is BRDT (Homo sapiens, UniProt Q58F21). The test can be described thus: BRDT IC50. It is filed as binding.
Test [2] addresses T2, BRD4. Kind of test: BRD4 IC50 (second BRD4 value listed in Table 2). It is filed as binding. The settings on record: second BRD4 IC50 listed per compound.
In a further test the test system is MV411. Kind of test: Cellular assay (ATPlite cell viability), MV411. It is filed as cell-based. The settings on record: MV411 cell line. How it is done: (§2) The compounds of the invention are also evaluated in the BRD4 dependant cell line for the cellular activity to generate cellular IC50 values.
(§3) Cells (e.g., BRD4 dependant cells) were counted and adjusted to 60,000 cells/mL. Using a Biotek EL406, 50 μL, of the cells in media were distributed into 384 well white plates from Thermo. Immediately after plating, compounds of the invention in DMSO were distributed to plates. For large plate sets, cells were returned to a 37° C. incubator while not in use. The compounds were added to plates using a 100 nL 384 well pin transfer manifold on a Janus workstation. Stocks were arrayed in 10 point quadruplicate dose response in DMSO stock in 384-well Greiner compound plates. After addition of the compounds, plates were incubated for three days in a 37° C. incubator. Cell viability was read out using ATPlite from Perkin Elmer. Plates were removed from the incubator and brought to room temperature prior to use. Lyophilized powder was resuspended in lysis buffer and diluted 1:2 with DI water. 25 μL of this solution was added to each well using the Biotek liquid handler. Plates were sealed with adherent aluminum seals prior to vortexing and spinning down at 1000 g for 1 minute. Plates were incubated for 15 minutes at room temperature before signal was read on an Envision Plate Reader.
In general terms: In ATP-based viability assays light output follows the ATP content of the culture.

In a further test the test system is NOMO1. The test can be described thus: Cellular assay (ATPlite cell viability), NOMO1. It counts as cell-based. The settings on record: NOMO1 cell line. How it is done: as §2, §3
The subject of a further test is Kasumi-1. Kind of test: Cellular assay (ATPlite cell viability), Kasumi-1. Conditions: Kasumi-1 cell line. It counts as cell-based. How it is done: as §2, §3
The next test relates to TF-1. The test can be described thus: Cellular assay (ATPlite cell viability), TF-1. It counts as cell-based. The settings on record: TF-1 cell line. How it is done:
as §2, §3

A further test concerns MOLM-13. The test can be described thus: Cellular assay (ATPlite cell viability), MOLM-13. It is filed as cell-based. The settings on record: MOLM-13 cell line. As for the experimental part: as §2, §3
Another test deals with 797. Kind of test: Cellular assay (ATPlite cell viability), 797. It counts as cell-based. The settings on record: 797 cell line. As for the experimental part: as §2, §3
Test [3] deals with T3, CREBBP (Homo sapiens, UniProt Q92793). Kind of test: CREBBP IC50. It is filed as binding.
Test [4] has as its target T2, BRD4. The test can be described thus: BRD4 KD (DiscoveRx). It counts as binding.
Test [5] deals with T3, CREBBP. Kind of test: CREBBP KD (DiscoveRx). It is filed as binding.
The next test concerns the target LRRK2 (Homo sapiens, UniProt Q5S007). Kind of test: LRRK2 IC50. It is filed as biochemical.

Chain of LRRK2 (Q5S007 whole entry): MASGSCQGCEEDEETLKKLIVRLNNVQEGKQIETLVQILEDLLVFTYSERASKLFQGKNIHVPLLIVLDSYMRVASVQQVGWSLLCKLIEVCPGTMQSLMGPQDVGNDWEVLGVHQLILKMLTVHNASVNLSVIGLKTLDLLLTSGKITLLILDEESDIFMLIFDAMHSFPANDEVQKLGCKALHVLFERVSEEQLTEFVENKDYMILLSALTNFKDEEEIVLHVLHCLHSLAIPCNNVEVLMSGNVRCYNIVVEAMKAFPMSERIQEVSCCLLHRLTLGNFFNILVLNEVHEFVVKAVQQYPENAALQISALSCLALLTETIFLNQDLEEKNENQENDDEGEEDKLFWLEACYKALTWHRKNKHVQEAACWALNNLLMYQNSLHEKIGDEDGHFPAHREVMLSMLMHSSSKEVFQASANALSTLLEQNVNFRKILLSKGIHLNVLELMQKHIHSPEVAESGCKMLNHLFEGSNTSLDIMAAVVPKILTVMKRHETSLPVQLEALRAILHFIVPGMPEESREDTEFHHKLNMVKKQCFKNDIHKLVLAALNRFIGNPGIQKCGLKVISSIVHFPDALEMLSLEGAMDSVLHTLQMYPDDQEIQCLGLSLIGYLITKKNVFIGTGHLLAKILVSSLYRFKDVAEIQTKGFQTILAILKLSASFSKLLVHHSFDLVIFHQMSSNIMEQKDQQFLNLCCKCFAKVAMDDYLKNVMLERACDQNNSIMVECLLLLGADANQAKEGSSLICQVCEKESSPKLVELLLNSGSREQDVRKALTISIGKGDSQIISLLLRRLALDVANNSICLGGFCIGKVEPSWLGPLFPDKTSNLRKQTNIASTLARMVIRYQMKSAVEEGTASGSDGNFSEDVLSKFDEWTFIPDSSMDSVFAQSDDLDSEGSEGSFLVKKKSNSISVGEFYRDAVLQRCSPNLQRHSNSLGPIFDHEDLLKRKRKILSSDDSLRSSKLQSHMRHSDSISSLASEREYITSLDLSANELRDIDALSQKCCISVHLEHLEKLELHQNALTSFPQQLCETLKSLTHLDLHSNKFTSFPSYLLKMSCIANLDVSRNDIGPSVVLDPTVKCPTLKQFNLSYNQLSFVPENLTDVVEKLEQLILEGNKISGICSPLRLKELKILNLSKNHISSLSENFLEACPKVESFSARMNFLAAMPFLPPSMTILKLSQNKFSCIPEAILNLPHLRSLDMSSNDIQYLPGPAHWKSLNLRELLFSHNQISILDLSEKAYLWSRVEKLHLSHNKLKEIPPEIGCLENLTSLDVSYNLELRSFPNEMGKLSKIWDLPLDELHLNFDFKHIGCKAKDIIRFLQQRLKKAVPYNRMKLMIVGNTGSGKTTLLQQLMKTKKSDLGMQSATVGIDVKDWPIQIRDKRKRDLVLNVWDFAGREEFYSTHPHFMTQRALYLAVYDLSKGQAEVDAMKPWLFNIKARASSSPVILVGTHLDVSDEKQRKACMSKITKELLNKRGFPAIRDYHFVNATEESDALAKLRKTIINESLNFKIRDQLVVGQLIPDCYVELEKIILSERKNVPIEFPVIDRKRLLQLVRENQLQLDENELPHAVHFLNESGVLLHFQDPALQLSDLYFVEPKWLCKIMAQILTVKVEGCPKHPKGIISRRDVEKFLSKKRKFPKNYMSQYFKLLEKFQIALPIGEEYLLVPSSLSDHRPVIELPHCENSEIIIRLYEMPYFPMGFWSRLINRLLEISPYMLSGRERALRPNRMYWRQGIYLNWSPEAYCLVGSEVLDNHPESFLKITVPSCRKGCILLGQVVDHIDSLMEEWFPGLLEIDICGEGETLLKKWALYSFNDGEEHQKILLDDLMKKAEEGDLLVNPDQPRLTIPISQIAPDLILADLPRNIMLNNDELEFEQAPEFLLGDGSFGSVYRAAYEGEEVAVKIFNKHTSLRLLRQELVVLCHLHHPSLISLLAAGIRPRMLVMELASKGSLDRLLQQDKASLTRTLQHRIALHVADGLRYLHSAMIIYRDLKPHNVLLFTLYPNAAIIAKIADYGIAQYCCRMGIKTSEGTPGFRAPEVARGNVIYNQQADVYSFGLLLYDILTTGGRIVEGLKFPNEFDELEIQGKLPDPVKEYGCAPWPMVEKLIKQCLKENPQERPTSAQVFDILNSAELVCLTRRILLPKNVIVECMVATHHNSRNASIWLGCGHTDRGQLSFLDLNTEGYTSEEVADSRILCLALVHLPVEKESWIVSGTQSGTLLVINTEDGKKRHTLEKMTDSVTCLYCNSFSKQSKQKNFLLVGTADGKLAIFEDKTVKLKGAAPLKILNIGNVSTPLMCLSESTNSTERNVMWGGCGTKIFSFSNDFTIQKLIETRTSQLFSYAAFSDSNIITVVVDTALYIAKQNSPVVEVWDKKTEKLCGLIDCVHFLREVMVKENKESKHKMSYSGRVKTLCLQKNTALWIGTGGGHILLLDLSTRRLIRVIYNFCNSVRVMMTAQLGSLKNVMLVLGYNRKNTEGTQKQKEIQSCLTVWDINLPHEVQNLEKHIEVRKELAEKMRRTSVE
T3 sequence (Q92793 whole entry): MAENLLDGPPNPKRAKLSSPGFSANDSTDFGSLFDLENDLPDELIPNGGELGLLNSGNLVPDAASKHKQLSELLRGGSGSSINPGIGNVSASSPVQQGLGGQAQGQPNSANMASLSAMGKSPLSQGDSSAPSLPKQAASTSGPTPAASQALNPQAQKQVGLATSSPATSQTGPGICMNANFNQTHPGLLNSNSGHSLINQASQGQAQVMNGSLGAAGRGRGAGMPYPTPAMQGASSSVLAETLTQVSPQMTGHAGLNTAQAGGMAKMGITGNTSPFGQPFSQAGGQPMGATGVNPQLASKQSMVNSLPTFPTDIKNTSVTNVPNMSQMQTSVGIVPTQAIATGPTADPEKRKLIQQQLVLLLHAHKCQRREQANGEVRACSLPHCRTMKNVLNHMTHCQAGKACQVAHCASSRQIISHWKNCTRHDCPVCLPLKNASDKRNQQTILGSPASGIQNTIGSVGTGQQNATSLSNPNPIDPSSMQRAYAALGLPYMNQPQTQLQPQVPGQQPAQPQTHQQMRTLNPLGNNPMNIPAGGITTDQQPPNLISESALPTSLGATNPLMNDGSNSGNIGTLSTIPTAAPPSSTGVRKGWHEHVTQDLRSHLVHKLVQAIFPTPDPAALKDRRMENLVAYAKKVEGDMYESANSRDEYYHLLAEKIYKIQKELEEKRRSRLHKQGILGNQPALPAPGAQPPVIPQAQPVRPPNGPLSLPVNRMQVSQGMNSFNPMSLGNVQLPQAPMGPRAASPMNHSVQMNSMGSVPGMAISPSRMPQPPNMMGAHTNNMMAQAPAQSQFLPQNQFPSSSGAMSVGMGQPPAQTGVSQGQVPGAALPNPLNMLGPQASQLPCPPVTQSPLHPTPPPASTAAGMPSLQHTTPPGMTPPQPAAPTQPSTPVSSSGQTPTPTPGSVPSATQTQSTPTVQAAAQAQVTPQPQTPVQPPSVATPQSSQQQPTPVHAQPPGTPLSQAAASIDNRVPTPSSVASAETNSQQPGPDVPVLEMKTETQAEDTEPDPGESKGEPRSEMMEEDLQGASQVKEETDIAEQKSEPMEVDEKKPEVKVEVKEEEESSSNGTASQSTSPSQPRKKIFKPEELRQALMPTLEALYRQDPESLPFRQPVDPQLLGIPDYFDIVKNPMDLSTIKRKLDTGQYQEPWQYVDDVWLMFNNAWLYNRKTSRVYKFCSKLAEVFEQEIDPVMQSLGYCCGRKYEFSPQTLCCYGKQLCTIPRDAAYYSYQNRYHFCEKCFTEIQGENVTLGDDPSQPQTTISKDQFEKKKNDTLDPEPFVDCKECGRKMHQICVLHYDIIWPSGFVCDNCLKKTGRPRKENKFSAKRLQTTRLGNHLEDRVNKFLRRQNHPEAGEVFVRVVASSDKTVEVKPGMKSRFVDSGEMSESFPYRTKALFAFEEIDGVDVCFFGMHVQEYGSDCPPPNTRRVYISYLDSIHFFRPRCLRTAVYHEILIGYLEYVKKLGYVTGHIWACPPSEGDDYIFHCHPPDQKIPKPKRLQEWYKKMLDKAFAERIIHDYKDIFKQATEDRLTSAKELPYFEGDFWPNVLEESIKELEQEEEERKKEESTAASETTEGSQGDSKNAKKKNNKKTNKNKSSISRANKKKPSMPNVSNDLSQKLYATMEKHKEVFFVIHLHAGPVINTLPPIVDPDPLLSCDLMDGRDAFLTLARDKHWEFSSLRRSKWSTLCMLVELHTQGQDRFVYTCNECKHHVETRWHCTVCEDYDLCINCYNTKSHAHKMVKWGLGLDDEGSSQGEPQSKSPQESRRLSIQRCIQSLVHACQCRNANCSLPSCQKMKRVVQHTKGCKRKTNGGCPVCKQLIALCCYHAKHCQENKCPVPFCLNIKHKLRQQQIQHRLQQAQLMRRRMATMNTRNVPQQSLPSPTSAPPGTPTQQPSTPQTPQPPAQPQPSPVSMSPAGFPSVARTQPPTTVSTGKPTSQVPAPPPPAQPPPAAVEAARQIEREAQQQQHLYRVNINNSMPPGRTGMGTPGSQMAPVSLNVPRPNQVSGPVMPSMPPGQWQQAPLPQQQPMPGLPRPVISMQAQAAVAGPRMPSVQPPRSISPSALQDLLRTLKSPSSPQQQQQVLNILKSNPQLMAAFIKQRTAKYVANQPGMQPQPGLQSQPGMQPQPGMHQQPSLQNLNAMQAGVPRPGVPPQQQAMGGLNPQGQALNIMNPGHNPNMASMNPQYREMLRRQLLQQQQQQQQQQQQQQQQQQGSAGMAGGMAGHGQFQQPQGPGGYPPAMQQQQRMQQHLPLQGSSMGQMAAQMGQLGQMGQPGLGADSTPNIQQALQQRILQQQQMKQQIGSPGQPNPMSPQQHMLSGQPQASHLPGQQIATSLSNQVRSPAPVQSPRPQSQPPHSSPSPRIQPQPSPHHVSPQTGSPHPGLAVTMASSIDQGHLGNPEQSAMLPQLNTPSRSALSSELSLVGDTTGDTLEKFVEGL

As for `CN1C(=O)c2ccccc2N(C)c2nc(Nc3ccc(N4CCC(O)CC4)cc3)ncc21`, the inhibition at 2.5 µM on BRD4.1 stood at 50.8%.
Consider `CN1C(=O)c2ccccc2N(C)c2nc(Nc3ccc(S(N)(=O)=O)cc3)ncc21` [Compound 2-075], for which the 50% inhibitory concentration (IC50) on BRD4 [1] (unit nm [sic]) is 970 nM; on BRDT, 2880 nM; at BRD4 [2], 1800 nM; with MV411 (Homo sapiens, MV4-11), 252 nM; in the test on NOMO1 (Homo sapiens, NOMO-1), 2500 nM; in the test on Kasumi-1 (Homo sapiens), 96 nM. The half-maximal inhibitory concentration (IC50) came out at 2140 nM in the test on TF-1 (Homo sapiens), 433 nM in the test with MOLM-13 (Homo sapiens), 34 nM with 797 and 431 nM against CREBBP [3]. Further, the equilibrium dissociation constant (Kd) was determined as 180 nM on BRD4 [4] and 23 nM at CREBBP [5].
Regarding `CCN(c1ncc2c(n1)N(C)c1ccccc1C(=O)N2C)c1ccc(C(=O)N2CCC(N3CCN(C)CC3)CC2)cc1OC` [Compound 2-041], the half-maximal inhibitory concentration (IC50) against BRD4 [1] was found to be 2.06 nM; at BRDT, 9610 nM; against BRD4 [2] it was 5700 nM; on LRRK2, 3000 nM; in the test on MV411 (Homo sapiens, MV4-11), 3480 nM; in the test with NOMO1 (Homo sapiens, NOMO-1), 8300 nM. Also, the half-maximal inhibitory concentration (IC50) in the test with Kasumi-1 (Homo sapiens) is 2360 nM; in the test with TF-1 (Homo sapiens) it was 7210 nM; in the test on MOLM-13 (Homo sapiens), 5740 nM; in the test on 797 it was 7100 nM.
`CCOc1cc(N2CCC(O)CC2)ccc1Nc1ncc2c(n1)N(C)c1ccccc1C(=O)N2C`: the inhibition at 2.5 µM on BRD4.1 turned out to be 29.5%.
As to `CN1C(=O)c2ccccc2N(C)c2nc(Nc3ccc(C(=O)O)cc3OC3CCCC3)ncc21` [Compound 2-043], the IC50 is 732 nM against BRD4 [1]; 2730 nM at BRDT; 1510 nM at BRD4 [2]; more than 10000 nM in the test with MV411 (Homo sapiens, MV4-11); 6800 nM in the test with NOMO1 (Homo sapiens, NOMO-1); 4780 nM in the test on Kasumi-1 (Homo sapiens). Further, the IC50 was 7100 nM with TF-1 (Homo sapiens), 6610 nM with MOLM-13 (Homo sapiens) and 1790 nM in the test on 797.
Consider `COc1cc(C(=O)N2CCC(N3CCN(C)CC3)CC2)ccc1Nc1ncc2c(n1)N(C)c1ccccc1C(=O)N2C` [drawing 33], for which the inhibition at 2.5 µM at BRD4.1 was found to be 20.5%.
On to `C[C@@H](Oc1cc(-n2cnc3ccc(CN4CCN(C)CC4)cc32)sc1C(N)=O)c1ccccc1C(F)(F)F` [GSK461364, reference compound], for which the concentration for half-maximal inhibition (IC50) is more than 50000 nM against BRD4 [1]; 7.1 nM with MV411 (Homo sapiens, MV4-11); 5.91 nM in the test with NOMO1 (Homo sapiens, NOMO-1); 7.8 nM in the test with Kasumi-1 (Homo sapiens); 6.93 nM in the test on MOLM-13 (Homo sapiens); 8 nM with 797. For the same compound, in the test with TF-1 (result in words), the “TF-1 IC50” value is “poor convergence”.
For the compound `COc1cc(C(=O)N2CCC(N3CCN(C)CC3)CC2)ccc1Nc1ncc2c(n1)N(C)c1ccccc1C(=O)N2C` [Compound 1-226], the half-maximal inhibitory concentration (IC50) came to 7 nM at LRRK2; 549 nM in the test on MV411 (Homo sapiens, MV4-11); 2000 nM in the test with NOMO1 (Homo sapiens, NOMO-1); 3360 nM in the test on TF-1 (Homo sapiens); 1270 nM with MOLM-13 (Homo sapiens); 1300 nM in the test with 797.
On to `CCN1CCN(Cc2ccc(Nc3ncc4c(n3)N(C)c3ccccc3C(=O)N4C)cc2C(F)(F)F)CC1`, for which the inhibition at 2.5 µM at BRD4.1 was found to be 45.8%.
On to `COc1cc(N2CCN(C)CC2)ccc1Nc1ncc2c(n1)N(C)c1ccccc1C(=O)N2C`, for which the inhibition at 2.5 µM at BRD4.1 was found to be 36.1%.
Turning to `COc1cc(C(=O)N2CCC(N3CCN(C)CC3)CC2)ccc1N(C)c1ncc2c(n1)N(C)c1ccccc1C(=O)N2C` [Compound 1-284], the IC50 stood at 1990 nM against BRD4 [1]; 5550 nM against BRDT; 2600 nM against BRD4 [2]; 4000 nM against LRRK2; 2440 nM in the test on MV411 (Homo sapiens, MV4-11); 8600 nM in the test on NOMO1 (Homo sapiens, NOMO-1). For the same compound, the IC50 in the test on Kasumi-1 (Homo sapiens) is 1860 nM; in the test on TF-1 (Homo sapiens), 6160 nM; with MOLM-13 (Homo sapiens) it was 4630 nM; in the test on 797 it was 7420 nM.
With `Cc1sc2c(c1C)C(c1ccc(Cl)cc1)=N[C@@H](CC(=O)OC(C)(C)C)c1nnc(C)n1-2` [JQ1, reference compound], the half-inhibitory concentration (IC50) in the test with MV411 was determined as 65.6 nM; with NOMO1, 172 nM; with Kasumi-1 it was 48.8 nM; in the test on TF-1, 109000 nM; in the test with MOLM-13, 89.2 nM; in the test with 797 it was 92 nM.

Usually IC50 stands for the concentration at which inhibition is half-maximal. High values mean lower potency, low ones higher potency. Broadly, the Kd is the constant that tells how readily two partners part at equilibrium. A lower Kd goes with higher affinity.
